Assay results: patent US20230107642A1 (Erasca, Inc., priority 2020, published 2023)

Biological target: T1, K-Ras G12C (Homo sapiens, UniProt P01116, G12C)
T1 construct: This protein contained 188 amino acids in total, including an N-terminal 6-Histidine tag; made in house; host or cells: E. coli BL21
Test: CAF assay (% CAF; method in Example 7, not in this part)
Format: binding
Conditions: 10 uM compound, 1 h incubation

| Compound | % CAF @ 10 uM, 1h |
| --- | --- |
| C=CC(=O)N1CCN(c2nc(=O)n3c4c(c(-c5ccc(F)cc5)c(Cl)cc24)SC[C@@H]3CN2CCC3(CC2)COC3)[C@@H](C)C1 [Example 462, (S)-3-(2-oxa-7-azaspiro[3.5]nonan-7-ylmethyl)-7-((S)-4-acryloyl-2-methylpiperazin-1-yl)-9-chloro-10-(4-fluorophenyl)-2H-[1,4]thiazino[2,3,4-ij]quinazolin-5(3H)-one] | 87.8% |
| C=CC(=O)N1CCN(c2nc(=O)n3c4c(c(-c5ccc(F)cc5F)c(Cl)cc24)SC[C@H](OC)C3)[C@@H](C)C1 [Example 488, (3R)-8-((S)-4-acryloyl-2-methylpiperazin-1-yl)-10-chloro-11-(2,4-difluorophenyl)-3-methoxy-3,4-dihydro-2H,6H-[1,4]thiazepino[2,3,4-ij]quinazolin-6-one] | 96% |
| C=CC(=O)N1CCN(c2nc(=O)n3c4c(c(-c5ccc(F)cc5F)c(Cl)cc24)SC[C@H]3COC2CN(CC)C2)[C@@H](C)C1 [Example 432, (3R)-7-((S)-4-acryloyl-2-methylpiperazin-1-yl)-9-chloro-10-(2,4-difluorophenyl)-3-(((1-ethylazetidin-3-yl)oxy)methyl)-2,3-dihydro-5H-[1,4]thiazino[2,3,4-ij]quinazolin-5-one] | 2.6% |
| C=CC(=O)N1C[C@H](C)N(c2nc(=O)n3c4c(c(-c5ccc(F)cc5)c(C(F)(F)F)cc24)SC[C@@H]3CC2CN(CC(F)F)C2)C[C@H]1C [Example 481, (S)-7-((2S,5R)-4-acryloyl-2,5-dimethylpiperazin-1-yl)-3-((1-(2,2-difluoroethyl)azetidin-3-yl)methyl)-10-(4-fluorophenyl)-9-(trifluoromethyl)-2,3-dihydro-5H-[1,4]thiazino[2,3,4-ij]quinazolin-5-one] | 59.4% |

Same assay, conditions: 10 uM, 1 h; Table 3

| Compound | % CAF @ 10 uM, 1h |
| --- | --- |
| C=CC(=O)N1CCN(c2nc(=O)n3c4c(c(-c5ccccc5F)c(Cl)cc24)SCC3)[C@@H](C)C1 (atropisomer, axis not shown) [Example 124, (S)-7-((S)-4-acryloyl-2-methylpiperazin-1-yl)-9-chloro-10-(2-fluorophenyl)-2,3-dihydro-5H-[1,4]thiazino[2,3,4-ij]quinazolin-5-one] | 96% |
| C=CC(=O)N1CCN(c2nc(=O)n3c4c(c(-c5ccc(F)cc5F)c(Cl)cc24)S(=O)(=O)CC3)[C@@H](C)C1 [Example 148] | 95.9% |
| C=CC(=O)N1CCN(c2nc(=O)n3c4c(c(-c5ccc(F)cc5F)c(Cl)cc24)[S@@+]([O-])CC3)[C@@H](C)C1 [Example 191, 7-((S)-4-acryloyl-2-methylpiperazin-1-yl)-9-chloro-10-(2,4-difluorophenyl)-2,3-dihydro-5H-[1,4]thiazino[2,3,4-ij]quinazolin-5-one 1-oxide] | 26.6% |
| C=CC(=O)N1CCN(c2nc(=O)n3c4c(c(-c5cccc(Cl)c5F)c(Cl)cc24)SCC3)[C@@H](C)C1 [Example 174, 7-((S)-4-acryloyl-2-methylpiperazin-1-yl)-9-chloro-10-(3-chloro-2-fluorophenyl)-2,3-dihydro-5H-[1,4]thiazino[2,3,4-ij]quinazolin-5-one] | 93.8% |

Same assay, conditions: 10 μM, 1 h; Table 4

| Compound | % CAF @ 10 μM, 1 h |
| --- | --- |
| C=CC(=O)N1CCN(c2nc(=O)n3c4c(c(-c5ccc(F)cc5F)c(Cl)cc24)SC[C@@H]3CN2CCN(CC(F)F)CC2)[C@@H](C)C1 [Example 356, (3S)-7-((S)-4-acryloyl-2-methylpiperazin-1-yl)-9-chloro-3-((4-(2,2-difluoroethyl)piperazin-1-yl)methyl)-10-(2,4-difluorophenyl)-2H-[1,4]thiazino[2,3,4-ij]quinazolin-5(3H)-one] | 95% |
| C=CC(=O)N1CCN(c2nc(=O)n3c4c(c(-c5ccc(F)cc5F)c(Cl)cc24)SC[C@H]3CC2CCN(C)CC2)[C@@H](C)C1 [Example 345, (3R)-7-((S)-4-acryloyl-2-methylpiperazin-1-yl)-9-chloro-10-(2,4-difluorophenyl)-3-((1-methylpiperidin-4-yl)methyl)-2H-[1,4]thiazino[2,3,4-ij]quinazolin-5(3H)-one] | 82.4% |
